Assay results from patent US8497262B2, “Therapeutic pyrazolonaphthyridine derivatives” (Dart NeuroScience (Cayman) Ltd, priority 2007, dated 2013).

What was measured:
[1] = molecular target: GABAA central benzodiazepine receptor; assay: Benzodiazepine binding assay ((3H)-flunitrazepam displacement); details: read-out: BZ binding assay (IC50); rat whole brain (except cerebellum) membranes, 1 nM (3H)-flunitrazepam, 3-concentration dose response curve
[2] = tested on: GABAA receptors; assay: Electrophysiology assay (two-electrode voltage clamp, Xenopus oocytes expressing GABAA receptors); type: cell-based; details: positive (Pos) or negative (Neg) modulation of GABA EC10 current at a screening concentration of 10 μM; receptor subtype not stated
Method: The modulation of GABAA function is determined by changes in current as determined in an electrophysiology assay, as is detailed below.
mRNA was prepared from lyophilized plasmid pellets containing cDNA inserts encoding the specific GABAA receptor subunit. cDNAs encoding the α2, α3, and γ3 subunits were subcloned into pBluescript, SK^−. cDNAs encoding the α1 and α5 subunits were subcloned into prC while cDNA encoding the β2 subunit was subcloned into pcDNA1. The cDNA construct encoding the γ2s subunit is in the pGH19 expression construct. Overnight cultures of transformed DH5a bacterial cells were performed to grow sufficient quantities for maxiprep isolation of the plasmid cDNA. The resulting plasmid cDNA was linearized by digestion with an appropriate restriction enzyme that cleaves distal to the cDNA insert (XbaI for α1,2, β2, and γ3 or NotI for α3,5 and γ2, respectively). Following digestion, plasmid cDNA was treated with proteinase K and extracted with phenol/chloroform/isoamyl alcohol, followed by ethanol precipitation. cDNA quality was assessed by agarose-gel electrophoresis (1.5% agarose gel). Samples were stored at −20° C. until use. In vitro transcription was performed with T7 RNA polymerase. mRNA was then stored at −80° C. until use. Plasmids were linearized with appropriate restriction enzymes before in vitro transcription using the Message Machine kit (Ambion, Austin, Tex.).
GABAA receptor expression in Xenopus oocytes: Following 45 min of 0.15% Tricaine anesthesia, an ovarian section containing the follicular oocytes was removed from the frog through a lateral abdominal incision. Oocytes were immediately placed in a calcium-free solution (NaCl 96 mM, MgCl2 1 mM, KCl 2 mM, Hepes 50 mM, pyruvate 2.5 mM, gentamycin 100 μg/mL, penicillin-streptomycin 50 U/mL, pH 7.4). Following 1.5-2 hour incubation in 0.2% collagenase (type II, Sigma Chemical Co., St. Louis, Mo.) at room temperature, individual Dumont stage V and VI oocytes were transferred to an incubator and maintained overnight in Barth's solution (NaCl 84 mM, NaHCO3 2.4 mM, MgSO4 0.82 mM, KCl 1 mM, Ca(NO3)2 0.33 mM, CaCl2 0.41 mM, Tris/HCl 7.5 mM, pyruvate 2.5 mM, gentamycin 50 μg/mL, penicillin-streptomycin, 100 units/mL, pH 7.4) at 18-20° C. and used for experiments 1-5 days post-injection. Oocytes were injected solution using an electronic microinjector (Drummond, Broomall, Pa.) with […] of RNA containing 0.3-0.5 ng of each subunit RNA in a 1:1:1 ratio. The injected oocytes were used for experiments after 1-5 days of incubation in Barth's solution at 18-20° C.
Measurements of ion currents from oocytes expressing GABAA receptors were performed using a Warner two-electrode voltage-clamp amplifier (Warner Instruments, Inc., Foster City, Calif.) (Park-Chung, M., et al. (1999) Brain Res. 830: 72-87 incorporated herein in its entirety). Microelectrodes were fabricated from borosilicate glass capillaries with a programmed pipette puller (Sutter Instrument Co., CA). Microelectrode resistance was 1-3 MΩ when filled with 3 M KCl. The oocyte recording chamber was continuously perfused with Ringer solution. Oocytes were clamped at a holding potential of −70 mV during data acquisition. The membrane current was filtered at 10 Hz and sampled at 100 Hz. Compounds were applied by a gravity-driven external perfusion system. The working volume of the recording chamber was 30 μL and the rate of the perfusion was approximately 50 μL/sec. Compound application was 10-20 sec followed by a 90 sec wash. Data acquisition and external perfusion was computer controlled by custom-developed software. All experiments were performed at room temperature (22-24° C.). Dose-response data from each oocyte were fitted to the Hill equation by non-linear regression using the equation: IGABA=Emax/(1+(EC50/c)^n^H) Emax is the maximum response, EC50 is the concentration producing 50% of the maximal response, nH is the Hill coefficient and c is the concentration of agonist. […]

| Structure (SMILES) | IC50 [1] [nM] | EP result [2] |
| --- | --- | --- |
| O=c1c2c[nH]c3cc(N4CCNCC4)ncc3c-2nn1-c1ccccc1 [compound 14, 2-Phenyl-7-(piperazin-1-yl)-2,5-dihydro-pyrazolo[4,3-c][1,6]naphthyridin-3-one] | > 1000 | Neg |
| O=C1CN(c2ccc3[nH]cc4c(=O)n(-c5ccccc5)nc-4c3n2)CCN1 [6j, 8-(3-Oxo-piperazin-1-yl)-2-phenyl-2,5-dihydro-pyrazolo[4,3-c][1,5]naphthyridin-3-one] | < 1000 |  |
| CC1CN(c2ccc3[nH]cc4c(=O)n(-c5ccccc5)nc-4c3n2)CC(C)O1 (stereo not shown) [6m, 8-(2,6-Dimethyl-morpholin-4-yl)-2-phenyl-2,5-dihydro-pyrazolo[4,3-c][1,5]naphthyridin-3-one] | < 1000 | Pos |
| CN1CCN(c2ccc3[nH]cc4c(=O)n(-c5ccccc5)nc-4c3n2)CC1 [6b, 8-(4-Methyl-piperazin-1-yl)-2-phenyl-2,5-dihydro-pyrazolo[4,3-c]-[1,5]naphthyridin-3-one] | < 1000 | Neg |
| CN1CCN(c2ccc3[nH]cc4c(=O)n(-c5ccccn5)nc-4c3n2)CC1 [6n, 8-(4-Methyl-piperazin-1-yl)-2-pyridin-2-yl-2,5-dihydro-pyrazolo[4,3-c][1,5]naphthyridin-3-one] | < 1000 |  |
| O=c1c2c[nH]c3ccc(N4CCNCC4)nc3c-2nn1-c1ccccc1 [6a, 2-Phenyl-8-(piperazin-1-yl)-2,5-dihydro-pyrazolo[4,3-c][1,5]naphthyridin-3-one] | < 1000 | Neg |
| O=c1c2c[nH]c3c(N4CCNCC4)nccc3c-2nn1-c1ccccc1 [compound 17, 2-Phenyl-6-(piperazin-1-yl)-2,5-dihydro-pyrazolo[4,3-c][1,7]naphthyridin-3-one] | > 1000 |  |
| CC1CN(c2ccc3[nH]cc4c(=O)n(-c5ccccc5)nc-4c3n2)CCN1 (stereo not shown) [6e, 8-(3-Methyl-piperazin-1-yl)-2-phenyl-2,5-dihydro-pyrazolo[4,3-c][1,5]naphthyridin-3-one] | < 1000 |  |
| O=c1c2c[nH]c3ccc(N4CCNCC4)nc3c-2nn1-c1ccccn1 [6s, 8-piperazin-1-yl-2-pyridin-2-yl-2,5-dihydro-pyrazolo[4,3-c][1,5]naphthyridin-3-one] | < 1000 | Pos |
| O=c1c2c[nH]c3ccc(N4CCCC(O)C4)nc3c-2nn1-c1ccccc1 (stereo not shown) [6f, 8-(3-Hydroxy-piperidin-1-yl)-2-phenyl-2,5-dihydro-pyrazolo[4,3-c][1,5]naphthyridin-3-one] | < 1000 |  |
| O=c1c2c[nH]c3ccc(N4CCN(c5ccccc5)CC4)nc3c-2nn1-c1ccccc1 [6l, 2-Phenyl-8-(4-phenyl-piperazin-1-yl)-2,5-dihydro-pyrazolo[4,3-c][1,5]naphthyridin-3-one] | < 1000 | Pos |

Other lines, results leading:

| IC50 [1] [nM] | EP result [2] | Structure (SMILES) |
| --- | --- | --- |
| < 1 |  | O=c1c2c[nH]c3ccc(N4CCC(O)CC4)nc3c-2nn1-c1ccccc1 [6d, 8-(4-Hydroxy-piperidin-1-yl)-2-phenyl-2,5-dihydro-pyrazolo[4,3-c][1,5]naphthyridin-3-one] |
| < 1 | Neg | O=c1c2c[nH]c3ccc(N4CCOCC4)nc3c-2nn1-c1ccccc1 [6c, 8-Morpholin-4-yl-2-phenyl-2,5-dihydro-pyrazolo[4,3-c][1,5]naphthyridin-3-one] |
| < 1000 |  | CN1CCCN(c2ccc3[nH]cc4c(=O)n(-c5ccccn5)nc-4c3n2)CC1 [6p, 8-(4-Methyl-[1,4]diazepan-1-yl)-2-pyridin-2-yl-2,5-dihydro-pyrazolo[4,3-c][1,5]naphthyridin-3-one] |
| < 1000 |  | O=c1c2c[nH]c3ccc(N4CCCNCC4)nc3c-2nn1-c1ccccc1 [6h, 8-[1,4]-Diazepan-1-yl-2-phenyl-2,5-dihydro-pyrazolo[4,3-c][1,5]naphthyridin-3-one] |
| < 1000 | Pos | CC1CN(c2ccc3[nH]cc4c(=O)n(-c5ccccn5)nc-4c3n2)CCN1 (stereo not shown) [6q, 8-(3-Methyl-piperazin-1-yl)-2-pyridin-2-yl-2,5-dihydro-pyrazolo[4,3-c][1,5]naphthyridin-3-one] |
| < 1 |  | O=c1c2c[nH]c3ccc(N4CCC(O)CC4)nc3c-2nn1-c1ccccn1 [6r] |
| < 1000 |  | O=c1c2c[nH]c3ccc(N4CCN(c5ccc(F)cc5)CC4)nc3c-2nn1-c1ccccc1 [6g, 8-[4-(4-Fluoro-phenyl)-piperazin-1-yl]-2-phenyl-2,5-dihydro-pyrazolo[4,3-c][1,5]naphthyridin-3-one] |
| < 1 | Neg | COc1ccc(-n2nc3c4nc(N5CCN(C)CC5)ccc4[nH]cc-3c2=O)cc1 [6t, 2-(4-Methoxy-phenyl)-8-(4-methyl-piperazin-1-yl)-2,5-dihydro-pyrazolo[4,3-c][1,5]naphthyridin-3-one] |
| < 1000 |  | O=c1c2c[nH]c3ccc(N4CCOCC4)nc3c-2nn1-c1ccccn1 [6o, 8-Morpholin-4-yl-2-pyridin-2-yl-2,5-dihydro-pyrazolo[4,3-c][1,5]naphthyridin-3-one] |
| < 1 |  | O=c1c2c[nH]c3ccc(N4CCCC(CO)C4)nc3c-2nn1-c1ccccc1 (stereo not shown) [6i, 8-(3-Hydroxymethyl-piperidin-1-yl)-2-phenyl-2,5-dihydro-pyrazolo[4,3-c][1,5]naphthyridin-3-one] |
| < 1 |  | O=c1c2c[nH]c3ccc(N4CCCC4)nc3c-2nn1-c1ccccc1 [6k, 2-Phenyl-8-pyrrolidin-1-yl-2,5-dihydro-pyrazolo[4,3-c][1,5]naphthyridin-3-one] |
